Structures can show the parent of a compound that is named as a salt. Where two headings read alike, the source gives them in different places.
Experiments:
Bcl-2 protein = Bcl-2 protein (Homo sapiens (Human), UniProt P10415); assay: Inhibition of Bcl-2 by the fluorescence polarisation technique; assay type: binding; settings: fluorescence polarisation test; concentration that inhibits fluorescence polarisation by 50%; read-out: IC50 (nM) Bcl-2 FP
Procedure: The fluorescence polarisation tests were carried out on microplates (384 wells). […] After incubation for 2 hours, the fluorescence polarisation is measured.

[1] = system: RS4;11 leukaemia tumour line; assay: In vitro cytotoxicity (Microculture Tetrazolium Assay, 48 hours); assay type: cell-based; settings: Homo sapiens, read-out: IC50 (nM) MTT RS4
Procedure: The cytotoxicity studies were carried out on the RS4;11 leukaemia tumour line.
The cells are distributed onto microplates and exposed to the test compounds for 48 hours.

[2] = RS4;11 cells, 48 hours exposure, MTT, concentration that inhibits cell viability by 50%

Chain of Bcl-2 protein (P10415 whole entry): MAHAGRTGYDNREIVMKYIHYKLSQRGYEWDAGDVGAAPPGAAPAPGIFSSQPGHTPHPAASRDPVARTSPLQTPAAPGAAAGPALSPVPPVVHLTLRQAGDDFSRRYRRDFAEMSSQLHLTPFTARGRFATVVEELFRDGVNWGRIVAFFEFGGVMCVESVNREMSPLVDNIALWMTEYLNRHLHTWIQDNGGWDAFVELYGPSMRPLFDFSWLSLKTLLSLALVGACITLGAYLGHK

| IC50 (Bcl-2 protein) | Structure (SMILES) | IC50 [1, 2] | IC50 ([1]; RS4-11, 48 h) |
| --- | --- | --- | --- |
| 8 nM | O=C(c1cc(-c2cc(Cl)ccc2C(=O)N2Cc3ccccc3C[C@H]2CN2CCOCC2)n2c1CCCC2)N(c1ccc(O)cc1)c1ccccc1F [Example 115, 3-(5-Chloro-2-{[(3S)-3-(morpholin-4-ylmethyl)-3,4-dihydroisoquinolin-2(1H)-yl]carbonyl}phenyl)-N-(2-fluorophenyl)-N-(4-hydroxyphenyl)-5,6,7,8-tetrahydroindolizine-1-carboxamide hydrochloride] | 58.1 nM |  |
| 8 nM | Cc1ccc(N(C(=O)c2cc(-c3cc(F)ccc3C(=O)N3Cc4ccccc4C[C@H]3CN3CCOCC3)n3c2CCCC3)c2ccc(O)cc2)cc1F [Example 91, N-(3-Fluoro-4-methylphenyl)-3-(5-fluoro-2-{[(3S)-3-(morpholin-4-ylmethyl)-3,4-dihydroisoquinolin-2(1H)-yl]carbonyl}phenyl)-N-(4-hydroxyphenyl)-5,6,7,8-tetrahydroindolizine-1-carboxamide hydrochloride] | 65.5 nM |  |
| 33 nM | Cc1ccc(N(C(=O)c2cc(-c3cc(Cl)ccc3C(=O)N3Cc4ccccc4C[C@H]3CN3CCOCC3)n3c2COCC3)c2ccc(O)cc2)cc1F [Example 82, 6-{5-Chloro-2-[((3S)-3-(4-morpholinylmethyl)-3,4-dihydro-2(1H)-isoquinolinyl)carbonyl]phenyl}-N-(3-fluoro-4-methylphenyl)-N-(4-hydroxyphenyl)-3,4-dihydro-1H-pyrrolo[2,1-c][1,4]oxazine-8-carboxamide hydrochloride] | 21.9 nM |  |
| 21 nM | COc1ccc(C(=O)N2Cc3ccccc3C[C@H]2CN2CCOCC2)c(-c2cc(C(=O)N(c3ccc(O)cc3)c3ccc4c(ccn4C)c3)c3ccccn23)c1 [Example 71, N-(4-Hydroxyphenyl)-3-{5-methoxy-2-[((3S)-3-(4-morpholinylmethyl)-3,4-dihydro-2(1H)-isoquinolinyl)carbonyl]phenyl}-N-(1-methyl-1H-indol-5-yl)-1-indolizine carboxamide hydrochloride] | 24.4 nM |  |
| 5 nM | Cn1ncc2cc(N(C(=O)c3cc(-c4cc(Cl)ccc4C(=O)N4Cc5ccccc5C[C@H]4CN4CCOCC4)n4c3COCC4)c3ccc(O)cc3)ccc21 [Example 101, 6-(5-Chloro-2-{[(3S)-3-(morpholin-4-ylmethyl)-3,4-dihydroisoquinolin-2(1H)-yl]carbonyl}phenyl)-N-(4-hydroxyphenyl)-N-(1-methyl-1H-indazol-5-yl)-3,4-dihydro-1H-pyrrolo[2,1-c][1,4]oxazine-8-carboxamide hydrochloride] | 22.1 nM |  |
| 22 nM | CS(=O)(=O)N1CCN(C[C@@H]2Cc3ccccc3CN2C(=O)c2cc3c(cc2-c2cc(C(=O)N(c4ccccc4)c4ccc(O)cc4)c4n2CCCC4)OCO3)CC1 [Example 123, N-(4-Hydroxyphenyl)-3-(6-{[(3S)-3-{[4-(methylsulphonyl)piperazin-1-yl]methyl}-3,4-dihydroisoquinolin-2(1H)-yl]carbonyl}-1,3-benzodioxol-5-yl)-N-phenyl-5,6,7,8-tetrahydroindolizine-1-carboxamide hydrochloride] | 92.1 nM |  |
| 15 nM | O=C(c1cc(-c2cc(Cl)ccc2C(=O)N2Cc3ccccc3C[C@H]2CN2CCOCC2)n2c1CCCC2)N(c1ccc(O)cc1)c1ccc(F)c(F)c1 [Example 118, 3-(5-Chloro-2-{[(3S)-3-(morpholin-4-ylmethyl)-3,4-dihydroisoquinolin-2(1H)-yl]carbonyl}phenyl)-N-(3,4-difluorophenyl)-N-(4-hydroxyphenyl)-5,6,7,8-tetrahydroindolizine-1-carboxamide hydrochloride] | 71 nM |  |
| 20 nM | Cc1ccc(N(C(=O)c2cc(-c3cc(Cl)ccc3C(=O)N3Cc4ccccc4C[C@H]3CN3CCOCC3)n3c2CCCC3)c2ccc(O)cc2)cc1Cl [Example 97, N-(3-Chloro-4-methylphenyl)-3-(5-chloro-2-{[(3S)-3-(morpholin-4-ylmethyl)-3,4-dihydroisoquinolin-2(1H)-yl]carbonyl}phenyl)-N-(4-hydroxyphenyl)-5,6,7,8-tetrahydroindolizine-1-carboxamide hydrochloride] | 45.4 nM |  |

More lines, now with the values behind:

| Structure (SMILES) | IC50 (Bcl-2 protein) | IC50 [1, 2] | IC50 ([1]; RS4-11, 48 h) |
| --- | --- | --- | --- |
| CC(C)n1ccc2cc(N(C(=O)c3cc(-c4cc5c(cc4C(=O)N4Cc6ccccc6C[C@H]4CN4CCOCC4)OCO5)n4ccccc34)c3ccc(O)cc3)ccc21 [Example 62, N-(4-Hydroxyphenyl)-N-(1-isopropyl-1H-indol-5-yl)-3-{6-[((3S)-3-(4-morpholinylmethyl)-3,4-dihydro-2(1H)-isoquinolinyl)carbonyl]-1,3-benzodioxol-5-yl}-1-indolizine carboxamide hydrochloride] | 22 nM | 19.3 nM |  |
| O=C(c1cc(-c2cc(Cl)ccc2C(=O)N2Cc3ccccc3C[C@H]2CN2CCOCC2)n2c1CCCC2)N(c1ccc(O)cc1)c1ccc2c(c1)CCN2 [Example 21, 3-{5-Chloro-2-[((3S)-3-(4-morpholinylmethyl)-3,4-dihydro-2(1H)-isoquinolinyl)carbonyl]phenyl}-N-(2,3-dihydro-1H-indol-5-yl)-N-(4-hydroxyphenyl)-5,6,7,8-tetrahydro-1-indolizine carboxamide bis(hydrochloride)] | 22 nM | 34.6 nM |  |
| Cn1ccc2cc(N(C(=O)c3cc(-c4cc5c(cc4C(=O)N4Cc6ccccc6C[C@H]4CN4CCOCC4)OCO5)n4c3CCC4)c3ccc(O)cc3)ccc21 [Example 96, N-(4-Hydroxyphenyl)-N-(1-methyl-1H-indol-5-yl)-5-(6-{[(3S)-3-(morpholin-4-ylmethyl)-3,4-dihydroisoquinolin-2(1H)-yl]carbonyl}-1,3-benzodioxol-5-yl)-2,3-dihydro-1H-pyrrolizine-7-carboxamide hydrochloride] | 11 nM | 58.8 nM |  |
| Cn1ccc2cc(N(C(=O)c3cc(-c4cc5c(cc4C(=O)N4Cc6ccccc6C[C@H]4CN4CCCOCC4)OCO5)n4c3CCCC4)c3ccc(O)cc3)ccc21 [Example 14, N-(4-Hydroxyphenyl)-N-(1-methyl-1H-indol-5-yl)-3-{6-[((3S)-3-(1,4-oxazepan-4-ylmethyl)-3,4-dihydro-2(1H)-isoquinolinyl)carbonyl]-1,3-benzodioxol-5-yl}-5,6,7,8-tetrahydro-1-indolizine carboxamide hydrochloride] | 16 nM | 10.7 nM |  |
| O=C(c1cc(-c2cc3c(cc2C(=O)N2Cc4ccccc4C[C@H]2CN2CCOCC2)OCO3)n2c1CCCC2)N(c1ccc(O)cc1)c1ccc(O)cc1 [Example 6, N,N-bis(4-Hydroxyphenyl)-3-{6-[((3S)-3-(4-morpholinylmethyl)-3,4-dihydro-2(1H)-isoquinolinyl)carbonyl]-1,3-benzodioxol-5-yl}-5,6,7,8-tetrahydro-1-indolizine carboxamide hydrochloride] | 15 nM |  | 30 nM |
| CN1CC2(CC2)c2cc(N(C(=O)c3cc(-c4cc(Cl)ccc4C(=O)N4Cc5ccccc5C[C@H]4CN4CCOCC4)n4c3CCCC4)c3ccc(O)cc3)ccc21 [Example 45, 3-{5-Chloro-2-[((3S)-3-(4-morpholinylmethyl)-3,4-dihydro-2(1H)-isoquinolinyl)carbonyl]phenyl}-N-(4-hydroxyphenyl)-N-(1′-methyl-1′,2′-dihydrospiro[cyclopropane-1,3′-indol]-5′-yl)-5,6,7,8-tetrahydro-1-indolizine carboxamide] | 47 nM | 76.8 nM |  |
| O=C(c1cc(-c2cc(Cl)ccc2C(=O)N2Cc3ccccc3C[C@H]2CN2CCOCC2)n2c1CCCC2)N(c1ccc(O)cc1)c1ccc2c(c1)CCC2 [Example 29, 3-{5-Chloro-2-[((3S)-3-(4-morpholinylmethyl)-3,4-dihydro-2(1H)-isoquinolinyl)carbonyl]phenyl}-N-(2,3-dihydro-1H-inden-5-yl)-N-(4-hydroxyphenyl)-5,6,7,8-tetrahydro-1-indolizine carboxamide hydrochloride] | 35 nM | 85.5 nM |  |
| CN1CCOc2cc(N(C(=O)c3cc(-c4cc(Cl)ccc4C(=O)N4Cc5ccccc5C[C@H]4CN4CCOCC4)n4c3CCCC4)c3ccc(O)cc3)ccc21 [Example 27, 3-{5-Chloro-2-[((3S)-3-(4-morpholinylmethyl)-3,4-dihydro-2(1H)-isoquinolinyl)carbonyl]phenyl}-N-(4-hydroxyphenyl)-N-(4-methyl-3,4-dihydro-2H-1,4-benzoxazin-7-yl)-5,6,7,8-tetrahydro-1-indolizine carboxamide hydrochloride] | 17 nM | 35.4 nM |  |
| O=C(c1cc(-c2cc3c(cc2C(=O)N2Cc4ccccc4C[C@H]2CN2CCOCC2)OCO3)n2c1CCCC2)N(c1ccc(O)cc1)c1ccc(OC(F)(F)F)cc1 [Example 5, N-(4-Hydroxyphenyl)-3-{6-[((3S)-3-(4-morpholinylmethyl)-3,4-dihydro-2(1H)-isoquinolinyl)carbonyl]-1,3-benzodioxol-5-yl}-N-[4-(trifluoromethoxy)phenyl]-5,6,7,8-tetrahydro-1-indolizine carboxamide hydrochloride] | 51 nM | 98 nM |  |
| CN1CCN(C[C@@H]2Cc3ccccc3CN2C(=O)c2ccc(Cl)cc2-c2cc(C(=O)N(c3ccc(O)cc3)c3ccc4c(ccn4C)c3)c3n2CCCC3)CC1 [Example 30, 3-{5-Chloro-2-[((3S)-3-[(4-methyl-1-piperazinyl)methyl]-3,4-dihydro-2(1H)-isoquinolinyl)carbonyl]phenyl}-N-(4-hydroxyphenyl)-N-(1-methyl-1H-indol-5-yl)-5,6,7,8-tetrahydro-1-indolizine carboxamide bis(hydrochloride)] | 13 nM | 8.59 nM |  |
